Converted amounts (≈) assume the structure as drawn. Numbered stars: 1 amine (or outer) side, 2 acyl side, 3 side chain; on linkers, the order of the positions; unused ones are H or OH. Square brackets hold non-standard residues; d marks the D form. Peptide text beside a SMILES is read from it. ξ: configuration not given here. X1 = N=C1NCC(C(O)C(N[*:1])C(=O)[*:2])N1C1OC(CO)C(O)C(O)C1O; ξEnduracididine(βξ-OH,4'ξ) = N=C1NCC(C(O)C(N)C(=O)O)N1; ξPhe(βξ-Me) = CC(c1ccccc1)C(N)C(=O)O
Assays:
[1] = test system: Staphylococcus aureus-SMITH (GC 4543); experiment: Acute lethal infection in mice (ED50); type: in vivo; details: female CD-1 mice, intraperitoneal challenge, intravenous dose 30 min. after infection, 7 day survival ratios
Method: The therapeutic effects of glycopeptide antibiotics of Formula I are determined against acute lethal infections with S. aureus (strain Smith), a penicillin resistant strain of S. pneumoniae (strain GC 1894), and a vancomycin resistant strain of E. fecalis (strain GC 6189 and GC 2246). Female mice, CD-1 (Charles River Laboratories), 20 +1-2 gm, are challenged by intraperitoneal injection of sufficient bacteria (suspended in Trypticase Soy Broth or hog gastric mucin) to kill non-treated controls within 24-48 hr. Antibacterial agents, contained in 0.2 mL of saline or 5% dextrose solution, are administered intravenously 30 min. after infection. Five mice are treated at each dose level. The 7 day survival ratios from 3 separate tests are pooled for calculation of median effective dose (ED50).

Enterococcus sp. = experiment: In vitro antibacterial evaluation: minimum inhibitory concentration (MIC), broth dilution method; type: cell-based; details: broth dilution, 18 hours at 35° C.
In short: (§1)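 Broth dilution per NCCLS M7-A2 in Muller-Hinton II […], inoculum 5×10^5 CFU/mL, antibiotic tested over 64-0.06 μg/mL. MIC is taken as the lowest concentration that inhibits growth. Panel includes recent clinical isolates resistant to methicillin, penicillin and/or vancomycin.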

Staphylococcus sp. = experiment: as above; type: cell-based; details: strain SMITH GC 4543; broth dilution, 18 hours at 35° C.
In short: as §1

Streptococcus sp. = experiment: as above; type: cell-based; details: broth dilution, 18 hours at 35° C.
In short: as §1

Escherichia coli = experiment: as above; type: cell-based; details: broth dilution, 18 hours at 35° C.
[2] = Enterococcus faecalis (ATCC 29212)
[3] = Enterococcus faecalis (GC 2242)
[4] = Enterococcus faecalis (GC 2691)
[5] = Enterococcus faecalis (GC 3059)
[6] = Enterococcus faecalis (GC 4552)
[7] = Enterococcus faecalis (GC 4553)
[8] = Enterococcus faecalis (GC 4554)
[9] = Enterococcus faecalis (GC 6189)
[10] = Streptococcus agalactiae (GC 4564)
[11] = Streptococcus pneumoniae (ATCC 6301)
[12] = Streptococcus pneumoniae (GC 1894)
[13] = Streptococcus pneumoniae (GC 4565)
[14] = Streptococcus pyogenes (GC 4563)

`CC(c1ccccc1)C1NC(=O)CNC(=O)C(CO)NC(=O)C(C(O)C2CNC(=N)N2C2OC(CO)C(O)C(O)C2O)NC(=O)C(C(O)C2CNC(=N)N2)NC(=O)C(Cc2ccc(O)cc2)NC1=O` (stereo not drawn) [Example 55, Cyclo[glycyl-β-methylphenylalanyltyrosyl-3-(2-iminoimidazolidin-4-yl)seryl-3-(3-hexopyranosyl-2-iminoimidazolidin-4-yl)serylseryl]] (cyclo(G[ξPhe(βξ-Me)]Y[ξEnduracididine(βξ-OH,4'ξ)][X1]S); configuration not given here) was tested, and the “median effective dose (ED50), Staphylococcus aureus-SMITH (GC 4543)” value [1] was over 8.

For `CC(c1ccccc1)C1NC(=O)CNC(=O)C(CO)NC(=O)C(C(O)C2CNC(=N)N2C2OC(CO)C(O)C(O)C2O)NC(=O)C(C(O)C2CNC(=N)N2)NC(=O)C(Cc2ccc3oc(-c4ccc(N(C)C)cc4)nc3c2)NC1=O` (stereo not drawn) [Example 29, Cyclo[3-[2-[4-(dimethylamino)phenyl]-1,3-benzoxazol-5-yl]alanyl-3-(2-iminoimidazolidin-4-yl)-seryl-3-(3-hexopyranosyl-2-iminoimidazolidin-4-yl)serylserylglycyl-β-methylphenyl-alanyl]], the “MIC Enterococcus avium (GC 4558)” value (Enterococcus sp.; Enterococcus avium (GC 4558)) was 16 µg/mL (≈ 14.3 µM), the “MIC Enterococcus faecalis (ATCC 29212)” value (Enterococcus sp.; [2]) was 32 µg/mL (≈ 28.7 µM) and the “MIC Enterococcus faecalis (GC 2242)” value (Enterococcus sp.; [3]) was 32 µg/mL (≈ 28.7 µM). The “MIC Enterococcus faecalis (GC 2691)” value (Enterococcus sp.; [4]) was 32 µg/mL (≈ 28.7 µM), the “MIC Enterococcus faecalis (GC 3059)” value (Enterococcus sp.; [5]) was 64 µg/mL (≈ 57.4 µM) and the “MIC Enterococcus faecalis (GC 4552)” value (Enterococcus sp.; [6]) was 64 µg/mL (≈ 57.4 µM). For the same molecule, the “MIC Enterococcus faecalis (GC 4553)” value (Enterococcus sp.; [7]) was 16 µg/mL (≈ 14.3 µM), the “MIC Enterococcus faecalis (GC 4554)” value (Enterococcus sp.; [8]) was 32 µg/mL (≈ 28.7 µM) and the “MIC Enterococcus faecalis (GC 6189)” value (Enterococcus sp.; [9]) was 32 µg/mL (≈ 28.7 µM). For the same molecule, the “MIC Enterococcus faecium (GC 2243)” value (Enterococcus sp.; Enterococcus faecium (GC 2243)) was 16 µg/mL (≈ 14.3 µM), the “MIC Enterococcus faecium (GC 4556)” value (Enterococcus sp.; Enterococcus faecium (GC 4556)) was 64 µg/mL (≈ 57.4 µM) and the “MIC Enterococcus faecium (GC 4557)” value (Enterococcus sp.; Enterococcus faecium (GC 4557)) was 8 µg/mL (≈ 7.17 µM). The “MIC Enterococcus avium (GC 4558)” value (Enterococcus sp.) was 16 µg/mL (≈ 14.3 µM), the “MIC Enterococcus faecalis (ATCC 29212)” value (Enterococcus sp.) was 32 µg/mL (≈ 28.7 µM) and the “MIC Enterococcus faecalis (GC 2242)” value (Enterococcus sp.) was 32 µg/mL (≈ 28.7 µM). For the same molecule, the “MIC Enterococcus faecalis (GC 2691)” value (Enterococcus sp.) was 32 µg/mL (≈ 28.7 µM), the “MIC Enterococcus faecalis (GC 3059)” value (Enterococcus sp.) was 64 µg/mL (≈ 57.4 µM) and the “MIC Enterococcus faecalis (GC 4552)” value (Enterococcus sp.) was 64 µg/mL (≈ 57.4 µM). The “MIC Enterococcus faecalis (GC 4553)” value (Enterococcus sp.) was 16 µg/mL (≈ 14.3 µM), the “MIC Enterococcus faecalis (GC 4554)” value (Enterococcus sp.) was 32 µg/mL (≈ 28.7 µM) and the “MIC Enterococcus faecalis (GC 6189)” value (Enterococcus sp.) was 32 µg/mL (≈ 28.7 µM). For the same molecule, the “MIC Enterococcus faecium (GC 2243)” value (Enterococcus sp.) was 16 µg/mL (≈ 14.3 µM), the “MIC Enterococcus faecium (GC 4556)” value (Enterococcus sp.) was 64 µg/mL (≈ 57.4 µM) and the “MIC Enterococcus faecium (GC 4557)” value (Enterococcus sp.) was 8 µg/mL (≈ 7.17 µM). For the same molecule, the “MIC Staphylococcus aureus-SMITH (GC 4543)” value (Staphylococcus sp.) was 8 µg/mL (≈ 7.17 µM), the “MIC Streptococcus agalactiae (GC 4564)” value (Streptococcus sp.; [10]) was 32 µg/mL (≈ 28.7 µM) and the “MIC Streptococcus pneumoniae (ATCC 6301)” value (Streptococcus sp.; [11]) was 32 µg/mL (≈ 28.7 µM). The “MIC Streptococcus pneumoniae (GC 1894)” value (Streptococcus sp.; [12]) was 32 µg/mL (≈ 28.7 µM), the “MIC Streptococcus pneumoniae (GC 4565)” value (Streptococcus sp.; [13]) was 32 µg/mL (≈ 28.7 µM) and the “MIC Streptococcus pyogenes (GC 4563)” value (Streptococcus sp.; [14]) was 16 µg/mL (≈ 14.3 µM). For the same molecule, the “MIC Streptococcus agalactiae (GC 4564)” value (Streptococcus sp.) was 32 µg/mL (≈ 28.7 µM), the “MIC Streptococcus pneumoniae (ATCC 6301)” value (Streptococcus sp.) was 32 µg/mL (≈ 28.7 µM) and the “MIC Streptococcus pneumoniae (GC 1894)” value (Streptococcus sp.) was 32 µg/mL (≈ 28.7 µM). The “MIC Streptococcus pneumoniae (GC 4565)” value (Streptococcus sp.) was 32 µg/mL (≈ 28.7 µM), the “MIC Streptococcus pyogenes (GC 4563)” value (Streptococcus sp.) was 16 µg/mL (≈ 14.3 µM) and the “MIC Escherichia coli (ATCC 25922)” value (Escherichia coli) was 16 µg/mL (≈ 14.3 µM). For the same molecule, the “MIC Escherichia coli (GC 4559)” value (Escherichia coli) was 16 µg/mL (≈ 14.3 µM) and the “MIC Escherichia coli (GC 4560)” value (Escherichia coli) was 4 µg/mL (≈ 3.59 µM).

`CC(c1ccccc1)C1NC(=O)CNC(=O)C(CO)NC(=O)C(C(O)C2CNC(=N)N2C2OC(CO)C(O)C(O)C2O)NC(=O)C(C(O)C2CNC(=N)N2)NC(=O)C(Cc2ccc3oc(-c4cccc([N+](=O)[O-])c4)nc3c2)NC1=O` (stereo not drawn) [Example 26, Cyclo[3-[2-(3-nitrophenyl)-1,3-benzoxazol-5-yl)alanyl-3-(2-iminoimidazolidin-4-yl)seryl-3-(3-hexopyranosyl-2-iminoimidazolidin-4-yl)serylserylglycyl-β-methylphenylalanyl]] was tested, and the “MIC Enterococcus avium (GC 4558)” value (Enterococcus sp.; Enterococcus avium (GC 4558)) was 32 µg/mL (≈ 28.6 µM), the “MIC Enterococcus faecalis (ATCC 29212)” value (Enterococcus sp.; [2]) was 32 µg/mL (≈ 28.6 µM) and the “MIC Enterococcus faecalis (GC 2242)” value (Enterococcus sp.; [3]) was 64 µg/mL (≈ 57.3 µM). The “MIC Enterococcus faecalis (GC 2691)” value (Enterococcus sp.; [4]) was 32 µg/mL (≈ 28.6 µM), the “MIC Enterococcus faecalis (GC 3059)” value (Enterococcus sp.; [5]) was 64 µg/mL (≈ 57.3 µM) and the “MIC Enterococcus faecalis (GC 4552)” value (Enterococcus sp.; [6]) was 64 µg/mL (≈ 57.3 µM). The “MIC Enterococcus faecalis (GC 4553)” value (Enterococcus sp.; [7]) was 32 µg/mL (≈ 28.6 µM), the “MIC Enterococcus faecalis (GC 4554)” value (Enterococcus sp.; [8]) was 64 µg/mL (≈ 57.3 µM) and the “MIC Enterococcus faecalis (GC 6189)” value (Enterococcus sp.; [9]) was 32 µg/mL (≈ 28.6 µM). The “MIC Enterococcus faecium (GC 2243)” value (Enterococcus sp.; Enterococcus faecium (GC 2243)) was 32 µg/mL (≈ 28.6 µM), the “MIC Enterococcus faecium (GC 4556)” value (Enterococcus sp.; Enterococcus faecium (GC 4556)) was 64 µg/mL (≈ 57.3 µM) and the “MIC Enterococcus faecium (GC 4557)” value (Enterococcus sp.; Enterococcus faecium (GC 4557)) was 8 µg/mL (≈ 7.16 µM). The “MIC Enterococcus avium (GC 4558)” value (Enterococcus sp.) was 32 µg/mL (≈ 28.6 µM), the “MIC Enterococcus faecalis (ATCC 29212)” value (Enterococcus sp.) was 32 µg/mL (≈ 28.6 µM) and the “MIC Enterococcus faecalis (GC 2242)” value (Enterococcus sp.) was 64 µg/mL (≈ 57.3 µM). The “MIC Enterococcus faecalis (GC 2691)” value (Enterococcus sp.) was 32 µg/mL (≈ 28.6 µM), the “MIC Enterococcus faecalis (GC 3059)” value (Enterococcus sp.) was 64 µg/mL (≈ 57.3 µM) and the “MIC Enterococcus faecalis (GC 4552)” value (Enterococcus sp.) was 64 µg/mL (≈ 57.3 µM). The “MIC Enterococcus faecalis (GC 4553)” value (Enterococcus sp.) was 32 µg/mL (≈ 28.6 µM), the “MIC Enterococcus faecalis (GC 4554)” value (Enterococcus sp.) was 64 µg/mL (≈ 57.3 µM) and the “MIC Enterococcus faecalis (GC 6189)” value (Enterococcus sp.) was 32 µg/mL (≈ 28.6 µM). For the same molecule, the “MIC Enterococcus faecium (GC 2243)” value (Enterococcus sp.) was 32 µg/mL (≈ 28.6 µM), the “MIC Enterococcus faecium (GC 4556)” value (Enterococcus sp.) was 64 µg/mL (≈ 57.3 µM) and the “MIC Enterococcus faecium (GC 4557)” value (Enterococcus sp.) was 8 µg/mL (≈ 7.16 µM). For the same molecule, the “MIC Staphylococcus aureus-SMITH (GC 4543)” value (Staphylococcus sp.) was 16 µg/mL (≈ 14.3 µM), the “MIC Streptococcus agalactiae (GC 4564)” value (Streptococcus sp.; [10]) was 16 µg/mL (≈ 14.3 µM) and the “MIC Streptococcus pneumoniae (ATCC 6301)” value (Streptococcus sp.; [11]) was 32 µg/mL (≈ 28.6 µM). The “MIC Streptococcus pneumoniae (GC 1894)” value (Streptococcus sp.; [12]) was 16 µg/mL (≈ 14.3 µM), the “MIC Streptococcus pneumoniae (GC 4565)” value (Streptococcus sp.; [13]) was 32 µg/mL (≈ 28.6 µM) and the “MIC Streptococcus pyogenes (GC 4563)” value (Streptococcus sp.; [14]) was 8 µg/mL (≈ 7.16 µM). The “MIC Streptococcus agalactiae (GC 4564)” value (Streptococcus sp.) was 16 µg/mL (≈ 14.3 µM), the “MIC Streptococcus pneumoniae (ATCC 6301)” value (Streptococcus sp.) was 32 µg/mL (≈ 28.6 µM) and the “MIC Streptococcus pneumoniae (GC 1894)” value (Streptococcus sp.) was 16 µg/mL (≈ 14.3 µM). The “MIC Streptococcus pneumoniae (GC 4565)” value (Streptococcus sp.) was 32 µg/mL (≈ 28.6 µM), the “MIC Streptococcus pyogenes (GC 4563)” value (Streptococcus sp.) was 8 µg/mL (≈ 7.16 µM) and the “MIC Escherichia coli (ATCC 25922)” value (Escherichia coli) was 64 µg/mL (≈ 57.3 µM). For the same molecule, the “MIC Escherichia coli (GC 4559)” value (Escherichia coli) was 64 µg/mL (≈ 57.3 µM) and the “MIC Escherichia coli (GC 4560)” value (Escherichia coli) was 16 µg/mL (≈ 14.3 µM).
